The values below come from patent publication US20230365592A1 (Agios Pharmaceuticals, Inc., priority 2022, published 2023).

Structures are written as SMILES. Where only a bound is given, the exact number is not on record here.

The assay has as its target T1, human PAH with the R408W mutation (Homo sapiens, UniProt P00439, R408W).
T1 construct: expressed in transfected cells
T1 sequence (P00439 1-452 R408W): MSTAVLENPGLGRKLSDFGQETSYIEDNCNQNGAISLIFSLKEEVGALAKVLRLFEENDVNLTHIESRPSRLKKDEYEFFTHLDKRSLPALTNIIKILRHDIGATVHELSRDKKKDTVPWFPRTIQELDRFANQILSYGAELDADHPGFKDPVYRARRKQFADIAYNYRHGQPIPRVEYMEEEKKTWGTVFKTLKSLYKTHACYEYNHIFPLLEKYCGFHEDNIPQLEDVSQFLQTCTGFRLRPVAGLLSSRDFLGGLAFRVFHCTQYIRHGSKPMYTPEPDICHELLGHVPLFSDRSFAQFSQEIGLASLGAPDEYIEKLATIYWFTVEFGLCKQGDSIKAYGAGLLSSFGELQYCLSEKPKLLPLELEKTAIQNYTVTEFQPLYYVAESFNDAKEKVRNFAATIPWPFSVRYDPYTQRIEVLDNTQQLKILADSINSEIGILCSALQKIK
The assay can be described thus: Cell Based Phenylalanine Flux Assay.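 Also: after compound treatment, cells received sepiapterin plus isotope-labelled Phenylalanine for 4 hours, then labelled Tyrosine in the medium was quantified, 10-point 2-fold dilution series run in duplicate.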 The note with it: A375 cells expressing human PAH R408W; 24 hrs compound incubation; 13C-Tyrosine by LC-MS; average where tested multiple times; read-out: AC50.

As a reminder, the AC50 is the concentration at which the activity in the assay is half-maximal. In the case of `O=C(c1nc2ccccc2o1)N1CCc2[nH]cnc2[C@H]1c1cc2ccccn2n1` [Example 2048, (S)-benzo[d]oxazol-2-yl(4-(pyrazolo[1,5-a]pyridin-2-yl)-1,4,6,7-tetrahydro-5H-imidazo[4,5-c]pyridin-5-yl)methanone], the AC50 was in the range of 0.5 to 1 µM.

Regarding `O=C(c1nc2ccccc2o1)N1CCc2[nH]cnc2[C@@H]1c1cc2ccccn2n1` [Example 2049, (R)-benzo[d]oxazol-2-yl(4-(pyrazolo[1,5-a]pyridin-2-yl)-1,4,6,7-tetrahydro-5H-imidazo[4,5-c]pyridin-5-yl)methanone], the concentration at half-maximal activity (AC50) was above 5 µM. On to `O=C(c1nc2ccccc2o1)N1CCc2[nH]cnc2[C@@H]1c1cc2c(F)cccn2n1` [Example 2051, (R)-benzo[d]oxazol-2-yl(4-(4-fluoropyrazolo[1,5-a]pyridin-2-yl)-1,4,6,7-tetrahydro-5H-imidazo[4,5-c]pyridin-5-yl)methanone], for which the concentration at half-maximal activity (AC50) was above 5 µM. Take `O=C(c1nc2ccccc2o1)N1CCc2[nH]cnc2[C@H]1c1cc2c(C(F)F)cccn2n1` [Example 2052, (S)-benzo[d]oxazol-2-yl(4-(4-(difluoromethyl)pyrazolo[1,5-a]pyridin-2-yl)-1,4,6,7-tetrahydro-5H-imidazo[4,5-c]pyridin-5-yl)methanone]: the AC50 was 0.5 to 1 µM. For the compound `O=C(c1nc2ccccc2o1)N1CCc2[nH]cnc2[C@@H]1c1cc2c(C(F)F)cccn2n1` [Example 2053, (R)-benzo[d]oxazol-2-yl(4-(4-(difluoromethyl)pyrazolo[1,5-a]pyridin-2-yl)-1,4,6,7-tetrahydro-5H-imidazo[4,5-c]pyridin-5-yl)methanone], the AC50 was above 5 µM. Consider `O=C(c1nc2ccccc2o1)N1CCc2[nH]cnc2[C@H]1c1cc2c(C(F)(F)F)cccn2n1` [Example 2054, (S)-benzo[d]oxazol-2-yl(4-(4-(trifluoromethyl)pyrazolo[1,5-a]pyridin-2-yl)-1,4,6,7-tetrahydro-5H-imidazo[4,5-c]pyridin-5-yl)methanone], for which the AC50 was in the range of 0.5 to 1 µM. With `O=C(c1nc2ccccc2o1)N1CCc2[nH]cnc2[C@@H]1c1cc2c(C(F)(F)F)cccn2n1` [Example 2055, (R)-benzo[d]oxazol-2-yl(4-(4-(trifluoromethyl)pyrazolo[1,5-a]pyridin-2-yl)-1,4,6,7-tetrahydro-5H-imidazo[4,5-c]pyridin-5-yl)methanone], the concentration at half-maximal activity (AC50) is above 5 µM. Take `FC(F)(F)c1nnc(N2CCc3[nH]cnc3[C@@H]2c2cc3c(C4CC4)cccn3n2)o1` [Example 2056, (R)-2-(4-(4-cyclopropylpyrazolo[1,5-a]pyridin-2-yl)-1,4,6,7-tetrahydro-5H-imidazo[4,5-c]pyridin-5-yl)-5-(trifluoromethyl)-1,3,4-oxadiazole]: the AC50 was above 5 µM.

With `FC(F)(F)c1nnc(N2CCc3[nH]cnc3[C@H]2c2cc3c(C4CC4)cccn3n2)o1` [Example 2057, (S)-2-(4-(4-cyclopropylpyrazolo[1,5-a]pyridin-2-yl)-1,4,6,7-tetrahydro-5H-imidazo[4,5-c]pyridin-5-yl)-5-(trifluoromethyl)-1,3,4-oxadiazole], the AC50 is below 0.5 µM. With `c1cc(C2CC2)c2cc([C@@H]3c4nc[nH]c4CCN3c3nnc(C4CC4)o3)nn2c1` [Example 2059, (S)-2-cyclopropyl-5-(4-(4-cyclopropylpyrazolo[1,5-a]pyridin-2-yl)-1,4,6,7-tetrahydro-5H-imidazo[4,5-c]pyridin-5-yl)-1,3,4-oxadiazole] the figure was 0.5 to 1 µM. For the compound `CC(C)(F)c1nnc(C(=O)N2CCc3[nH]cnc3[C@H]2c2cc3c(C4CC4)cccn3n2)o1` [Example 2061, (S)-(4-(4-cyclopropylpyrazolo[1,5-a]pyridin-2-yl)-1,4,6,7-tetrahydro-5H-imidazo[4,5-c]pyridin-5-yl)(5-(2-fluoropropan-2-yl)-1,3,4-oxadiazol-2-yl)methanone], the half-maximal activity concentration (AC50) was in the range of 0.5 to 1 µM. The result for `Fc1cccc(F)c1-c1nnc(N2CCc3[nH]cnc3[C@H]2c2cc3c(Cl)cccn3n2)o1` [Example 2063, (S)-2-(4-(4-chloropyrazolo[1,5-a]pyridin-2-yl)-1,4,6,7-tetrahydro-5H-imidazo[4,5-c]pyridin-5-yl)-5-(2,6-difluorophenyl)-1,3,4-oxadiazole] reads below 0.5 µM; that for `Cc1c(-c2ncc(C(=O)N3CCc4[nH]cnc4[C@H]3c3cc4c(F)cccn4n3)o2)cnn1C` [Example 2066, (S)-(2-(1,5-dimethyl-1H-pyrazol-4-yl)oxazol-5-yl)(4-(4-fluoropyrazolo[1,5-a]pyridin-2-yl)-1,4,6,7-tetrahydro-5H-imidazo[4,5-c]pyridin-5-yl)methanone], 0.5 to 1 µM. For `Cc1c(-c2ncc(C(=O)N3CCc4[nH]cnc4[C@@H]3c3cc4c(F)cccn4n3)o2)cnn1C` [Example 2067, (R)-(2-(1,5-dimethyl-1H-pyrazol-4-yl)oxazol-5-yl)(4-(4-fluoropyrazolo[1,5-a]pyridin-2-yl)-1,4,6,7-tetrahydro-5H-imidazo[4,5-c]pyridin-5-yl)methanone], the AC50 was above 5 µM.

Turning to `Cc1c(-c2ncc(C(=O)N3CCc4[nH]cnc4[C@H]3c3cc4c(C(F)F)cccn4n3)o2)cnn1C` [Example 2068, (S)-(4-(4-(difluoromethyl)pyrazolo[1,5-a]pyridin-2-yl)-1,4,6,7-tetrahydro-5H-imidazo[4,5-c]pyridin-5-yl)(2-(1,5-dimethyl-1H-pyrazol-4-yl)oxazol-5-yl)methanone], the AC50 lay in the range of 0.5 to 1 µM. Regarding `Cc1cccc2cc([C@@H]3c4nc[nH]c4CCN3C(=O)c3ocnc3C3CC3)nn12` [Example 2070, (S)-(4-cyclopropyloxazol-5-yl)(4-(7-methylpyrazolo[1,5-a]pyridin-2-yl)-1,4,6,7-tetrahydro-5H-imidazo[4,5-c]pyridin-5-yl)methanone], the concentration at half-maximal activity (AC50) is below 0.5 µM. As for `Cn1cc(-c2nc(C3CC3)c(C(=O)N3CCc4[nH]cnc4[C@@H]3c3cc4c(F)cccn4n3)o2)cn1` [Example 2072, (R)-(4-cyclopropyl-2-(1-methyl-1H-pyrazol-4-yl)oxazol-5-yl)(4-(4-fluoropyrazolo[1,5-a]pyridin-2-yl)-1,4,6,7-tetrahydro-5H-imidazo[4,5-c]pyridin-5-yl)methanone], the AC50 is above 5 µM.

In the case of `Cn1cc(-c2nc(C3CC3)c(C(=O)N3CCc4[nH]cnc4[C@H]3c3cc4c(F)cccn4n3)o2)cn1` [Example 2073, (S)-(4-cyclopropyl-2-(1-methyl-1H-pyrazol-4-yl)oxazol-5-yl)(4-(4-fluoropyrazolo[1,5-a]pyridin-2-yl)-1,4,6,7-tetrahydro-5H-imidazo[4,5-c]pyridin-5-yl)methanone], the AC50 fell in the range of 0.5 to 1 µM.

For `Cc1cccn2nc([C@@H]3c4nc[nH]c4CCN3C(=O)c3oc(-c4cnn(C)c4)nc3C3CC3)cc12` [Example 2074], the AC50 was below 0.5 µM.

With `O=C(c1ncco1)N1CCc2[nH]cnc2[C@H]1c1cc2c(C(F)F)cccn2n1` [Example 2076, (S)-(4-(4-(difluoromethyl)pyrazolo[1,5-a]pyridin-2-yl)-1,4,6,7-tetrahydro-5H-imidazo[4,5-c]pyridin-5-yl)(oxazol-2-yl)methanone], the AC50 lay within 0.5 to 1 µM. As for `O=C(c1ncco1)N1CCc2[nH]cnc2[C@@H]1c1cc2c(C(F)F)cccn2n1` [Example 2077, (R)-(4-(4-(difluoromethyl)pyrazolo[1,5-a]pyridin-2-yl)-1,4,6,7-tetrahydro-5H-imidazo[4,5-c]pyridin-5-yl)(oxazol-2-yl)methanone], the half-maximal activity concentration (AC50) was above 5 µM. Consider `O=C(c1ncco1)N1CCc2[nH]cnc2[C@H]1c1cc2c(C(F)(F)F)cccn2n1` [Example 2078, (S)-oxazol-2-yl(4-(4-(trifluoromethyl)pyrazolo[1,5-a]pyridin-2-yl)-1,4,6,7-tetrahydro-5H-imidazo[4,5-c]pyridin-5-yl)methanone], for which the half-maximal activity concentration (AC50) lay in the range of 0.5 to 1 µM. Regarding `O=C(C1CCC1)N1CCc2[nH]cnc2[C@H]1c1cc2c(F)cccn2n1` [Example 2080, (S)-cyclobutyl(4-(4-fluoropyrazolo[1,5-a]pyridin-2-yl)-1,4,6,7-tetrahydro-5H-imidazo[4,5-c]pyridin-5-yl)methanone], the AC50 is below 0.5 µM. As to `Cc1nnc(N2CCc3[nH]cnc3[C@H]2c2cc3c(C(C)C)cccn3n2)o1` [Example 2083, (S)-2-(4-(4-isopropylpyrazolo[1,5-a]pyridin-2-yl)-1,4,6,7-tetrahydro-5H-imidazo[4,5-c]pyridin-5-yl)-5-methyl-1,3,4-oxadiazole], the AC50 is below 0.5 µM.

With `CC(C)c1cccn2nc([C@H]3c4nc[nH]c4CCN3c3nnc(C(F)F)o3)cc12` [Example 2084, (R)-2-(difluoromethyl)-5-(4-(4-isopropylpyrazolo[1,5-a]pyridin-2-yl)-1,4,6,7-tetrahydro-5H-imidazo[4,5-c]pyridin-5-yl)-1,3,4-oxadiazole], the AC50 is above 5 µM. As to `CC(C)c1cccn2nc([C@@H]3c4nc[nH]c4CCN3c3nnc(C(F)F)o3)cc12` [Example 2085, (S)-2-(difluoromethyl)-5-(4-(4-isopropylpyrazolo[1,5-a]pyridin-2-yl)-1,4,6,7-tetrahydro-5H-imidazo[4,5-c]pyridin-5-yl)-1,3,4-oxadiazole], the AC50 was below 0.5 µM. Consider `Fc1ccc(-c2nnc(N3CCc4[nH]cnc4[C@H]3c3cc4cccc(Cl)n4n3)o2)cc1` [Example 2086, (S)-2-(4-(7-chloropyrazolo[1,5-a]pyridin-2-yl)-1,4,6,7-tetrahydro-5H-imidazo[4,5-c]pyridin-5-yl)-5-(4-fluorophenyl)-1,3,4-oxadiazole], for which the AC50 was below 0.5 µM.
